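In this assay, cells in 96-well plates receive the compound at five concentrations for 48 hours. Endpoints are linearly interpolated between the surrounding concentrations. Here, GI50 denotes the concentration required for 50% inhibition of growth. At the TGI there is no net growth.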
How the values were obtained:
Assay in all cases: growth of human tumour cells (NCI), 48 h
MDA-MB-435 = system: MDA-MB-435
UO-31 renal = system: UO-31 renal
SK-MEL-2 melanoma = system: SK-MEL-2 melanoma
SK-MEL-5 melanoma = system: SK-MEL-5 melanoma
HCC-2998 colon = system: HCC-2998 colon
NCI-H460 lung = system: NCI-H460 lung
NCI-H23 lung = system: NCI-H23 lung
SNB-19 CNS = system: SNB-19 CNS
CCRF-CEM leukemia = system: CCRF-CEM leukemia
HL-60(TB) leukemia = system: HL-60(TB) leukemia
SK-OV-3 ovarian = system: SK-OV-3 ovarian
SNB-75 CNS = system: SNB-75 CNS
PC-3 prostate = system: PC-3 prostate
TK-10 renal = system: TK-10 renal
OVCAR-5 ovarian = system: OVCAR-5 ovarian
RPMI-8226 leukemia = system: RPMI-8226 leukemia
T-47D breast = system: T-47D breast
SW-620 colon = system: SW-620 colon
ACHN renal = system: ACHN renal
OVCAR-4 ovarian = system: OVCAR-4 ovarian
HOP-62 NSCLC = system: HOP-62 NSCLC
HCT-116 colon = system: HCT-116 colon
MOLT-4 leukemia = system: MOLT-4 leukemia
MALME-3M melanoma = system: MALME-3M melanoma
NCI-H522 lung = system: NCI-H522 lung
DU-145 prostate = system: DU-145 prostate
SF-268 CNS = system: SF-268 CNS
HS 578T breast = system: HS 578T breast
NCI/ADR-RES ovarian = system: NCI/ADR-RES ovarian

Q: For `CC1(C)[C@@H](OC(N)=O)[C@H]2O[C@H]2[C@]2(CO)[C@H]3CC[C@]4(C)[C@@H](c5ccc(=O)oc5)[C@@H](Cl)C[C@]4(O)C3=CC[C@@H]12`, which GI50 (MDA-MB-435) is on record?
A: 10.1 nM

Q: What about the TGI (MDA-MB-435) of the same compound?
A: 38.6 nM

Q: And the GI50 (UO-31 renal)?
A: 6.45 nM

Q: What about the TGI (UO-31 renal) of the same compound?
A: 22.8 nM

Q: What about the GI50 (SK-MEL-2 melanoma) of the same compound?
A: 8.18 nM

Q: What about the TGI (SK-MEL-2 melanoma) of the same compound?
A: 33 nM

Q: What about the GI50 (SK-MEL-5 melanoma) of the same compound?
A: 6.81 nM

Q: What about the TGI (SK-MEL-5 melanoma) of the same compound?
A: 19.5 nM

Q: What about the GI50 (HCC-2998 colon) of the same compound?
A: 15.1 nM

Q: And the TGI (HCC-2998 colon)?
A: 107 nM

Q: What about the GI50 (NCI-H460 lung) of the same compound?
A: 4.68 nM

Q: What about the TGI (NCI-H460 lung) of the same compound?
A: 9.97 nM

Q: And the GI50 (NCI-H23 lung)?
A: 5.52 nM

Q: What about the TGI (NCI-H23 lung) of the same compound?
A: 15.2 nM

Q: And the GI50 (SNB-19 CNS)?
A: 16.1 nM

Q: What about the TGI (SNB-19 CNS) of the same compound?
A: 50.9 nM

Q: And the GI50 (CCRF-CEM leukemia)?
A: 7.68 nM

Q: What about the TGI (CCRF-CEM leukemia) of the same compound?
A: 26.4 nM

Q: What about the GI50 (HL-60(TB) leukemia) of the same compound?
A: 6.09 nM

Q: And the TGI (HL-60(TB) leukemia)?
A: 14 nM

Q: What about the GI50 (SK-OV-3 ovarian) of the same compound?
A: 6.61 nM

Q: What about the TGI (SK-OV-3 ovarian) of the same compound?
A: 18 nM

Q: And the GI50 (SNB-75 CNS)?
A: 4.67 nM

Q: What about the TGI (SNB-75 CNS) of the same compound?
A: 13.8 nM

Q: And the GI50 (PC-3 prostate)?
A: 8.03 nM

Q: And the TGI (PC-3 prostate)?
A: 27.5 nM

Q: What about the GI50 (TK-10 renal) of the same compound?
A: 5.55 nM

Q: And the TGI (TK-10 renal)?
A: 15 nM

Q: What about the GI50 (OVCAR-5 ovarian) of the same compound?
A: 8.21 nM

Q: What about the TGI (OVCAR-5 ovarian) of the same compound?
A: 34.2 nM

Q: And the GI50 (RPMI-8226 leukemia)?
A: < 11 nM

Q: And the TGI (RPMI-8226 leukemia)?
A: 126 nM

Q: What about the GI50 (T-47D breast) of the same compound?
A: 7.6 nM

Q: And the TGI (T-47D breast)?
A: 33.3 nM

Q: And the GI50 (SW-620 colon)?
A: 8.35 nM

Q: What about the TGI (SW-620 colon) of the same compound?
A: 27.9 nM

Q: What about the GI50 (ACHN renal) of the same compound?
A: 5.15 nM

Q: What about the TGI (ACHN renal) of the same compound?
A: 11.8 nM

Q: And the GI50 (OVCAR-4 ovarian)?
A: 5.45 nM

Q: And the TGI (OVCAR-4 ovarian)?
A: 15.7 nM

Q: And the GI50 (HOP-62 NSCLC)?
A: 4.32 nM

Q: What about the TGI (HOP-62 NSCLC) of the same compound?
A: 8.47 nM

Q: And the GI50 (HCT-116 colon)?
A: 7.09 nM

Q: And the TGI (HCT-116 colon)?
A: 26.2 nM

Q: And the GI50 (MOLT-4 leukemia)?
A: 5.19 nM

Q: What about the TGI (MOLT-4 leukemia) of the same compound?
A: 14.4 nM

Q: What about the GI50 (MALME-3M melanoma) of the same compound?
A: 6.16 nM

Q: And the TGI (MALME-3M melanoma)?
A: 14.9 nM

Q: What about the GI50 (NCI-H522 lung) of the same compound?
A: 4.55 nM

Q: What about the TGI (NCI-H522 lung) of the same compound?
A: 14.7 nM

Q: What about the GI50 (DU-145 prostate) of the same compound?
A: 5.09 nM

Q: And the TGI (DU-145 prostate)?
A: 10.6 nM

Q: And the GI50 (SF-268 CNS)?
A: 4.57 nM

Q: What about the TGI (SF-268 CNS) of the same compound?
A: 8.92 nM

Q: What about the GI50 (HS 578T breast) of the same compound?
A: 5.24 nM

Q: And the TGI (HS 578T breast)?
A: 20.7 nM

Q: What about the GI50 (NCI/ADR-RES ovarian) of the same compound?
A: 6.72 nM

Q: What about the TGI (NCI/ADR-RES ovarian) of the same compound?
A: 17.4 nM

From PubChem BioAssay (NCI)
